Test results: patent US10323019B2, “Pyrazolylaminobenzimidazole derivatives as JAK inhibitors” (Eli Lilly and Company, priority 2016, dated 2019)
Read-outs that look alike come from different tables or passages of the source.

How the values were obtained:
[1] = molecular target: JAK3 (Homo sapiens (Human), UniProt P52333); test: JAK LanthaScreen Kinase Assay (TR-FRET), JAK3 in vitro enzyme assay; type: biochemical; conditions: 20.0 μM ATP
Procedure: (§1) The JAK LanthaScreen™ Kinase Assay (Invitrogen) is used to determine the ability of test compounds to inhibit JAK1, JAK2, and JAK3 kinase activity. These are TR-FRET assay formats that use long-lifetime terbium labeled antibody as the donor species and GFP-STAT1 as the acceptor species. Use the TR-FRET ratio to monitor JAK kinase activity where an increase in phosphorylation of the GFP-STAT1 results in an increase in the TR-FRET ratio. Perform the kinase reaction using a 12.5 μl reaction volume in shallow black 384-well Proxiplate®. Add reagents to obtain final reaction conditions of […], 1.76 mM Triton X-100, ATP (20.0 μM for JAK1 and JAK3 or 5 μM for JAK2) enzyme assays, 10.0 mM MgCl2, 1 mM EGTA and 0.01% Brij-35, […] GFP-STAT1, 14 nM JAK1 enzyme for JAK1, 1.0 nM for JAK2 or 2.5 nM for JAK3 enzyme assays, and 4% DMSO and serial dilutions of test compound (diluted 1:3 from 20,000 to 1 nM). Following ATP/GFP-STAT1 addition, centrifuge the assay plates for 1 minute at 1000 revolutions per minute (RPM). Allow the plates to incubate at RT for 60 minutes and then add 12.5 μl of a stopping buffer containing 20 mM EDTA, 2 nM Terbium-anti-phosphorylated Signal Transducers and Activators of Transcription [phosphorylation Tyrosine 701 amino acid] […] Use ACTIVITYBASE® 4.0 to fit the percent inhibition and ten-point compound concentration data to a four-parameter logistic equation.

[2] = molecular target: T1, JAK1 (Homo sapiens (Human), UniProt P23458); test: JAK LanthaScreen Kinase Assay (TR-FRET), JAK1 in vitro enzyme assay; type: biochemical; conditions: 20.0 μM ATP
T1 sequence (P23458 whole entry): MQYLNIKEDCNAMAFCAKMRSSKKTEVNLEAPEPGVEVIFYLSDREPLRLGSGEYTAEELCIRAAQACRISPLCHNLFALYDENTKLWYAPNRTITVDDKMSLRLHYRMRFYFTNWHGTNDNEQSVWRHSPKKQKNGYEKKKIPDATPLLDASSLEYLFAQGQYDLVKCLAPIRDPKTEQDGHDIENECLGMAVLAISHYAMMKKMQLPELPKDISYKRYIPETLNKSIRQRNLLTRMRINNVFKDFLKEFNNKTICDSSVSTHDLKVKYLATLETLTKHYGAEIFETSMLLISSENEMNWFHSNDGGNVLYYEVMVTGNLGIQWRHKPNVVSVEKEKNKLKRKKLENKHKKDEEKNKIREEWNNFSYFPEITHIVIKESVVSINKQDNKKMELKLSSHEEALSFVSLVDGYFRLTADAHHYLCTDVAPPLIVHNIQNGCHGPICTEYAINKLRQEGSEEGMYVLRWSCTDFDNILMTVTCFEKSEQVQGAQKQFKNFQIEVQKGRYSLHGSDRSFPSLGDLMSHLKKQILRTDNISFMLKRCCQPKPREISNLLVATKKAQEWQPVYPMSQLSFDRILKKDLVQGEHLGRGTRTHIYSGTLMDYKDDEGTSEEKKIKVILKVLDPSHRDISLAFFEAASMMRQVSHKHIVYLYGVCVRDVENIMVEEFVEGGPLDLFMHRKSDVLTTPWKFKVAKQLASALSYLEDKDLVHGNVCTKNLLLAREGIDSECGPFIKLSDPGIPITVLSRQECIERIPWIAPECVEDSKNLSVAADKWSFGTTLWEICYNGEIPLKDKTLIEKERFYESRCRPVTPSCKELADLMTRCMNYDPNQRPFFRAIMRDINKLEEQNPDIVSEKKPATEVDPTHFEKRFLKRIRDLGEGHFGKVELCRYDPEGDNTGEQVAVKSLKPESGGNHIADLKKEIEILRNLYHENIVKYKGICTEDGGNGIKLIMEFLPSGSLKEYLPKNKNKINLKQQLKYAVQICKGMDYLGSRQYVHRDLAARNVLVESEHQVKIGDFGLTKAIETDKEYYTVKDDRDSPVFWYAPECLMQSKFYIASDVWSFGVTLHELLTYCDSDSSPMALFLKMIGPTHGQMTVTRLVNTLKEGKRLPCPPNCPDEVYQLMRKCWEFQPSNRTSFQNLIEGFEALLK
Procedure: as §1

[3] = molecular target: T1, JAK1; test: Human whole blood assay: pSTAT3 (JAK1) in lymphocytes, IL6 stimulated; type: cell-based; conditions: IL6, pSTAT3 in CD4+ lymphocytes
Excerpt: Human Whole Blood Assays: Determination of pSTAT3 (JAK1) and pSTAT5 (JAK2) in Lymphocytes and Monocytes
Human whole blood (HWB) assays were developed and validated to determine the JAK1 and JAK2 selectivity of test compounds.
Dilute the test compounds, 10 points, (1:3) in DMSO 100% and a step down in PBS+0.1% BSA. Use Tofacitinib as a reference compound in each plate, as well as a maximum signal (stimulated wells) and a minimum signal (no stimulated wells) in order to normalize data. Obtain a pool of HWB from 4 different healthy donors. Plate the blood in a 96 well plate using a Tecan Evo 96w and incubate with test compounds for 1 h at RT. After this time of incubation, stimulate HWB with both IL6 (206-IL, R&D System) and GM-CSF (PHC2015, Life Technologies) for 15 more minutes. Add a viability dye (65-0865, eBiosicience) (1:1000) using a Tecan Evo 96w (5×mix).
The final concentrations in the assay are the following: 100 (μM for compounds, 50 μM for Tofacitinib, 0.1 μg/mL IL6, 0.038 μg/mL GM-CSF and 1% DMSO. Lyse and fix HWB using a Lyse/fix buffer (558049, Becton Dickinson) by adding 900 μL of lysis buffer using Tecan Evo 96w (mix 10× high speed). Incubate HWB in bath at 37° C. for 10 minutes. Centrifuge HWB at 500 G, 8 min and discard supernatant. Add cold MeOH using a Tecan Exo 96w in order to permeabilize cells. Incubate blood cells on ice during 30 min. After this, wash cells 2× using Staining buffer (554656, Becton Dickinson), spin at 3000 rpm, 2 min. discard supernatant, and add the following antibodies: Anti-Human CD4 PE, 1:100 (12-0048, eBioscience), Anti-Human CD33 eFluor® 450, 1:50 (48-0337, eBioscience), Phospho-STAT5 (Tyr694) (C71E5) Rabbit mAb, 1:100 (Alexa Fluor® 488 Conjugate) (3939, Cell Signaling) and Phospho-STAT3 (Tyr705) (D3A7) XP™ Rabbit mAb 1:200, (Alexa Fluor® 647 Conjugate) (4324, Cell Signaling). Incubate the antibodies for 1 h in dark at RT, then wash cells 2× and read on Cytometer Macsquant (Miltenyi Biotec). Gate the data on CD4+ (lymphocytes) and CD4Low CD33Hi (monocytes), to measure the fluorescence intensity from cells expressing pSTAT3 and pSTAT5, respectively. Analyze the data using FlowJo v 10 and then normalize the median of fluorescence versus maximum and minimum signal to determine the IC50s. Use Graph Pad Prism 5™ to represent the dose response curves.

[4] = molecular target: JAK2 (Homo sapiens (Human), UniProt O60674); test: JAK LanthaScreen Kinase Assay (TR-FRET), JAK2 in vitro enzyme assay; type: biochemical; conditions: 5 μM ATP
Sequence of JAK2 (O60674 whole entry): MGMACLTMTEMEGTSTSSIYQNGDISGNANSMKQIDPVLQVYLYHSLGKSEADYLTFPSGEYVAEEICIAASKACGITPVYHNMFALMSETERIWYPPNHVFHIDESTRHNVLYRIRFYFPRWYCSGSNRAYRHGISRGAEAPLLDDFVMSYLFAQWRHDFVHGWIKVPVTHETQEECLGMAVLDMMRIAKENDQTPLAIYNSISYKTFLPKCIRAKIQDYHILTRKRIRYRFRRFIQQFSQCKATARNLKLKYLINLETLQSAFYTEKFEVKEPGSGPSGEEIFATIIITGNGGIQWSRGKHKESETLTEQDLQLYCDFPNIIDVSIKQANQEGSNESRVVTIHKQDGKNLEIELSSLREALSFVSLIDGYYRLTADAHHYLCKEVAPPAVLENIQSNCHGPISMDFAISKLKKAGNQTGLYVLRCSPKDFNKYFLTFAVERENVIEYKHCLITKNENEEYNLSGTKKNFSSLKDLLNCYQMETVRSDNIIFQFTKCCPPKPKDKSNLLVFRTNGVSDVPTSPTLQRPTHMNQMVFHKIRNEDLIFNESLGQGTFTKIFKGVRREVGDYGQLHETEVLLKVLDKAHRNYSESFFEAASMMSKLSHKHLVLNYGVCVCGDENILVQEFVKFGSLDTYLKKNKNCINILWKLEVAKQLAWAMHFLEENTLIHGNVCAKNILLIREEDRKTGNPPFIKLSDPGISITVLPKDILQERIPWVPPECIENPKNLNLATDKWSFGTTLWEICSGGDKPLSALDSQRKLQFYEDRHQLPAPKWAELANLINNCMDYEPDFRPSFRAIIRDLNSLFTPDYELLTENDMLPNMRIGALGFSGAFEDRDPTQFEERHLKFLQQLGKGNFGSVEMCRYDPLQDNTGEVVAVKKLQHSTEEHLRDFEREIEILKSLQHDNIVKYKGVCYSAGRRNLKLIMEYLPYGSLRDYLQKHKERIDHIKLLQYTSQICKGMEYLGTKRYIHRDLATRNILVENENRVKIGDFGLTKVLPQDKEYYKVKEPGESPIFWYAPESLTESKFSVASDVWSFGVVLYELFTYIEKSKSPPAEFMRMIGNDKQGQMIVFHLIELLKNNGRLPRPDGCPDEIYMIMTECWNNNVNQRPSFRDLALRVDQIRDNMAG
Procedure: as §1

[5] = molecular target: JAK1 (Rattus norvegicus, UniProt G3V9W2); test: Rat PK/PD assay: rat whole blood ex vivo JAK1 activity (pSTAT3); type: in vivo; conditions: 30 mpk oral
Sequence of JAK1 (Rattus norvegicus, UniProt G3V9W2) (G3V9W2 1-1153): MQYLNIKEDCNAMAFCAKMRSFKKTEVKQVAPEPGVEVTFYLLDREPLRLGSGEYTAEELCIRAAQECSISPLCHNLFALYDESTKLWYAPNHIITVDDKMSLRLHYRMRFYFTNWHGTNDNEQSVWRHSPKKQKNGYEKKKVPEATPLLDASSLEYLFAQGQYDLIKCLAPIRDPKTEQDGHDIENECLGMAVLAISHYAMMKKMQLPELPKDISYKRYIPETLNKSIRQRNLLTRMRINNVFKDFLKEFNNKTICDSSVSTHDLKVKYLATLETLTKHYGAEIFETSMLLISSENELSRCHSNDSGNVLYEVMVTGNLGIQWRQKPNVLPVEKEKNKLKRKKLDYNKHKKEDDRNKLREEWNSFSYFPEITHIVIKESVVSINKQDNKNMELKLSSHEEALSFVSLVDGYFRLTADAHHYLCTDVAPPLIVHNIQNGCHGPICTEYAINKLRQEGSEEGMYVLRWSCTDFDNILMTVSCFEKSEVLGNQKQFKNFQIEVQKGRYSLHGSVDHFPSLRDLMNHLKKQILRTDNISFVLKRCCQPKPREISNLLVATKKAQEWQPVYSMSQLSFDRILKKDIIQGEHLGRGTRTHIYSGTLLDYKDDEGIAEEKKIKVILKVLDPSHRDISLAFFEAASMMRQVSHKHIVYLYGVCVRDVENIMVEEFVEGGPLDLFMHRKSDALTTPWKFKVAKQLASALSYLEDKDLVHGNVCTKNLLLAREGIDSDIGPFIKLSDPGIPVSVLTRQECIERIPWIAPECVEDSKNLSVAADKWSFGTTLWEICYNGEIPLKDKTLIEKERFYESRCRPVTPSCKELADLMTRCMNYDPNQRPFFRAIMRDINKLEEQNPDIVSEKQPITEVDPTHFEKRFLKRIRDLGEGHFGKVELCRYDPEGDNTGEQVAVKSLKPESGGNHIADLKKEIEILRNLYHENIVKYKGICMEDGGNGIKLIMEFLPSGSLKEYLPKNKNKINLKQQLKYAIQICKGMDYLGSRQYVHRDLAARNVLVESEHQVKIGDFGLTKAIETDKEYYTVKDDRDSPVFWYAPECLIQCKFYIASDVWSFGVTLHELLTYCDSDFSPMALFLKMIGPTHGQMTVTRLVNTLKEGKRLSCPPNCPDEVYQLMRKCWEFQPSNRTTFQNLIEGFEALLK
Procedure: Male Wistar rats, 265-285 grams (Charles River) were used for oral gavage dosing. Dose the animals (Oral gavage) at 1.82 mL/kg (0.5 mL per 275 grams). Formulate the compounds in 1% HEC vehicle containing 0.25% Tween 80 and 0.05% antifoam with 1.1 molar equivalent of methanesulfonic acid to form an in situ salt. Formulate compounds once per week, and store at 4° C. At various time points, obtain rat whole blood via tail vain bleeding in Multivette 600 μl EDTA blood collection tubes (cat#151671100PK100, Sarstedt Inc) and use for ex vivo JAK1 and JAK2 assay. Aliquot 100 ul of blood from each rat into a 96-well round bottom plate. Stimulate whole blood by recombinant IL-6 ([…], and recombinant mouse GM-CSF (cat#415-ML, lot#, R&D) for 12 min at rt. After cytokine stimulation, add whole blood into Lyse/fix (cat#558049, lot#, BD) in minitube rack; mix well 5×. Incubate 10 min at rt. Spin minitube rack at 600 g for 4 min. Aspirate with 12-channel manifold. Transfer contents of minitube rack to 96 well round-bottom plates. Spin down the cells at 3000 rpm for 1 min and discard the supernatant. Mix the cells in the well with 100 ul ice-cold MeOH and incubated on ice for 30 min. Add 150 ul PBS+2% FCS into each well and spin down at 3000 rpm, 2 min. Wash cells with 2× of 250 ul PBS+2% FCS. For cell surface and intracellular staining, mix all antibodies and add into each well and incubate 1 hr at rt in dark. The antibodies used for staining are as following: pSTAT3, Alexa Fluor 647 (cat#4324s, lot, Cell Signaling); pSTAT5, Alexa Fluor 488 (cat#3939s, lot#, Cell Signaling), anti-rat CD4, V450 (cat#561579, lot#. BD); anti-rat CD11b, Percp eFluor710 (cat#12-0110-82, lot#, eBioscience) After staining cells with Abs, wash the plates twice with PBS+2% FCS and finally re-suspend in the same 150 ul of solution. Assess cell viability by Viability Dye 780 (cat#65-0865-14, lot#, eBioscience). Perform the cytometry assay using FORTESSA.

Sequence of JAK3 (P52333 whole entry): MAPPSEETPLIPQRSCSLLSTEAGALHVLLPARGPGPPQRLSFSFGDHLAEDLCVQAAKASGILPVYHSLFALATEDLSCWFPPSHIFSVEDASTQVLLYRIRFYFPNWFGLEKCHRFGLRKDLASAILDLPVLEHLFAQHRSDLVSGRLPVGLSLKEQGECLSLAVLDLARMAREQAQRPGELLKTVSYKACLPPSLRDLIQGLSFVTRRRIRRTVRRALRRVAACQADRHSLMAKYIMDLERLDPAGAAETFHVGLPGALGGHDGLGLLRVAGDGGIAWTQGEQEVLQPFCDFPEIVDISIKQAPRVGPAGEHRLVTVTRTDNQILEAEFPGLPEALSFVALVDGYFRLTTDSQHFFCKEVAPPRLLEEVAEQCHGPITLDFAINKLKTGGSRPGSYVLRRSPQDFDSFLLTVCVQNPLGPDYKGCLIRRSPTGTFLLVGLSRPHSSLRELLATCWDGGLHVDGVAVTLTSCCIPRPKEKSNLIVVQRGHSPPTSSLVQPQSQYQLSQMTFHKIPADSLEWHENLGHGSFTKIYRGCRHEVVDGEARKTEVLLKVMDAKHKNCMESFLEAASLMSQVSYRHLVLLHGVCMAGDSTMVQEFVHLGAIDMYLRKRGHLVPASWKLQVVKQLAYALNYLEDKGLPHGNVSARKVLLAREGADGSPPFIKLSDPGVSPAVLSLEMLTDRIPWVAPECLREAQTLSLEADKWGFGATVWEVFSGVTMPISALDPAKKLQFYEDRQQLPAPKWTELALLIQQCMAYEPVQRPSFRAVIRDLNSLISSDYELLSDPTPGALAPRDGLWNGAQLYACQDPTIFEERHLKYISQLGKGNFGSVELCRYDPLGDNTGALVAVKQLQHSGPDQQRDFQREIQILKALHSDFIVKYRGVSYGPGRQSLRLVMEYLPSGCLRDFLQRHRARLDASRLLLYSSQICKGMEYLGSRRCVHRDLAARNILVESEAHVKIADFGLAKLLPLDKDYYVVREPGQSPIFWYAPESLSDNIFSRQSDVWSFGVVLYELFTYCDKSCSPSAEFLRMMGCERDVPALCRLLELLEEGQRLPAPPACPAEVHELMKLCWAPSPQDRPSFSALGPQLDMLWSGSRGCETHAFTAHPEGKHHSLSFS

With COc1cc(Nc2cc(O[C@H]3CC[C@@H](NC[C@@H](O)C(F)(F)F)CC3)cc3c2ncn3C)nn1C [Example 6, (2R)-1,1,1-Trifluoro-3-{[cis-4-({4-[(5-methoxy-1-methyl-1H-pyrazol-3-yl)amino]-1-methyl-1H-benzimidazol-6-yl}oxy)cyclohexyl]amino}propan-2-ol] the IC50 [1] was 2540 ± 510 nM, the IC50 [2] was 5.25 ± 1.11 nM and the IC50 [3] was 3650 ± 790 nM. It also gave an IC50 [4] of 768 ± 220 nM, an inhibition at 30 mg/kg ([5]; 2 hr post dosing, read-out: JAK1 inhibition 2 hr post dosing) of 83.5% and an inhibition at 30 mg/kg ([5]; 7 hr post dosing, read-out: JAK1 inhibition 7 hr post dosing) of 75.4%.
